Source: PubChem BioAssay (NCI)
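Results reflect a 48-hour exposure of cells in 96-well plates to compound at five concentrations. At the GI50, growth is halved. TGI is the concentration that stops growth completely.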

Tests used:
Assay in all cases: inhibition of tumour cell growth, NCI panel, 48 h
SF-295 CNS = system: SF-295 CNS
SNB-19 CNS = system: SNB-19 CNS
U251 CNS = system: U251 CNS
SK-OV-3 ovarian = system: SK-OV-3 ovarian
OVCAR-4 ovarian = system: OVCAR-4 ovarian
OVCAR-3 ovarian = system: OVCAR-3 ovarian
KM12 colon = system: KM12 colon
MOLT-4 leukemia = system: MOLT-4 leukemia
HOP-92 NSCLC = system: HOP-92 NSCLC
TK-10 renal = system: TK-10 renal

Row | SMILES | TGI (SF-295 CNS) | TGI (SNB-19 CNS) | TGI (U251 CNS) | TGI (SK-OV-3 ovarian) | TGI (OVCAR-4 ovarian) | TGI (OVCAR-3 ovarian) | TGI (KM12 colon) | TGI (MOLT-4 leukemia) | TGI (HOP-92 NSCLC) | TGI (TK-10 renal) | GI50 (OVCAR-3 ovarian) | GI50 (HOP-92 NSCLC)
1 | CC[N+]1(C)CCC(O)(/C=C/c2ccc(OC)cc2)C(C(=O)/C=C/c2ccc(OC)cc2)C1 (configuration not stated) | 39.1 µM | 35.6 µM | 33.9 µM | 36.7 µM | > 59.6 µM | 53 µM | 16.8 µM | 4.94 µM | 34.5 µM | 11.6 µM | – | –
2 | Nc1ncnc2c1ncn2C1CCC(COS(N)(=O)=O)C1 (configuration not stated) | > 100 µM | > 100 µM | > 100 µM | > 100 µM | > 100 µM | > 100 µM | > 100 µM | > 100 µM | > 100 µM | > 100 µM | – | –
3 | Cc1ccncc1.F[B-](F)(F)F.[Pt+2].c1ccc(-c2cccc(-c3ccccn3)n2)nc1 | 7.74 µM | > 66.7 µM | > 100 µM | 17.6 µM | > 100 µM | > 44.3 µM | 39.5 µM | 39.1 µM | > 100 µM | 28.5 µM | 0.835 µM | 10.2 µM
4 | COc1nc2c(c(=O)n1C)N[C@H]1[C@H](OC(C)=O)[C@@H](OC(C)=O)CO[C@H]1N2 | > 100 µM | > 100 µM | > 100 µM | > 100 µM | > 100 µM | > 100 µM | > 100 µM | > 100 µM | > 100 µM | > 100 µM | – | –
5 | CCOP(=O)(OCC)C(Nc1cccc(F)c1)c1ccccc1 (configuration not stated) | > 100 µM | > 100 µM | > 100 µM | > 100 µM | > 100 µM | > 100 µM | > 100 µM | > 100 µM | > 100 µM | > 100 µM | – | –
6 | COC(=O)[C@H]1[C@@H](C(C)C)O[C@@H](C(C)C)O[C@H]1C(F)(F)F | > 100 µM | > 100 µM | > 100 µM | > 100 µM | > 100 µM | > 100 µM | > 100 µM | > 100 µM | > 100 µM | > 100 µM | – | –
7 | CCOC(=O)C1(C(=O)OCC)[C@H](c2ccccc2)C2=NO[C@@H]3CCC[C@H]1[C@H]23 | > 100 µM | > 100 µM | > 100 µM | > 100 µM | > 100 µM | 96.8 µM | > 100 µM | > 100 µM | > 100 µM | > 100 µM | – | –
8 | C[C@@H](O)C(=O)N1[C@@H]2CC3CC[C@]2(CS1(=O)=O)C3(C)C | > 100 µM | > 100 µM | > 100 µM | > 100 µM | > 100 µM | > 100 µM | > 100 µM | > 100 µM | > 100 µM | > 100 µM | – | –
9 | C(=C\c1cccc(/C=C/c2ccccn2)n1)/c1ccccn1 | > 100 µM | > 100 µM | > 100 µM | > 100 µM | > 100 µM | > 100 µM | > 100 µM | > 100 µM | > 100 µM | > 100 µM | – | –
10 | CC(=O)OCC1OC(n2c3c(c(-c4cccc5ccccc45)c(C#N)c2=S)CCCC3)C(OC(C)=O)C(OC(C)=O)C1OC(C)=O (configuration not stated) | > 100 µM | > 100 µM | > 100 µM | > 100 µM | > 100 µM | > 100 µM | > 100 µM | > 100 µM | > 100 µM | > 100 µM | – | –
11 | C=C(CCC(C)C1CCC2C3=C(C(=O)CC21C)C1(C)CCC(=O)[C@@H](C)C1CC3=O)C(C)C(=O)O (some centres not stated) | > 100 µM | > 100 µM | > 100 µM | 5.46 µM | > 100 µM | > 100 µM | > 100 µM | 74.9 µM | 78.7 µM | > 100 µM | – | –
12 | Cc1cc(C)c(P2C(=C(O[Si](C(C)C)(C(C)C)C(C)C)C(C)(C)C)C2(c2ccccc2)c2ccccc2)c(C)c1 (configuration not stated) | > 100 µM | > 100 µM | > 100 µM | > 100 µM | > 100 µM | > 100 µM | > 100 µM | > 100 µM | > 100 µM | > 100 µM | – | –
13 | Nc1nc(-c2ccccc2N=NN2CCCC2)nc2ccccc12 | 10.5 µM | 16.5 µM | 8.91 µM | 21.4 µM | 19.1 µM | 4.35 µM | 7.36 µM | 3.52 µM | 21.3 µM | 14.5 µM | – | –
14 | COc1ccc2c(c1)C(N)=C(c1ccccc1)C2=O | > 100 µM | > 100 µM | > 100 µM | > 100 µM | > 100 µM | > 100 µM | > 100 µM | > 100 µM | > 100 µM | > 100 µM | – | –
15 | C/C(=C\c1ccccn1)c1ccccn1 | > 100 µM | > 100 µM | > 100 µM | > 100 µM | > 100 µM | > 100 µM | > 100 µM | > 100 µM | > 100 µM | > 100 µM | – | –
16 | Cc1ccc(C(=O)N/N=C(\N=Nc2cccc(Cl)c2)c2ccc(N(CCC#N)CCC#N)cc2C)cc1 | > 100 µM | > 100 µM | > 100 µM | > 100 µM | > 100 µM | > 100 µM | > 100 µM | > 100 µM | > 100 µM | > 100 µM | – | –
17 | Cc1ccc(C(=O)O)c(CC2Cc3c(C)cccc3C2=O)c1 (configuration not stated) | > 100 µM | > 100 µM | > 100 µM | > 100 µM | > 100 µM | > 100 µM | > 100 µM | > 100 µM | > 100 µM | > 100 µM | – | –
18 | CCOC(=O)c1c(CN2CCNCC2)nc2ccccc2c1-c1ccccc1 | 29 µM | 33.6 µM | 27.5 µM | 30.1 µM | 33.1 µM | 31.8 µM | 31.2 µM | 25 µM | 17.7 µM | 27.3 µM | – | –
19 | CC(=O)/C(=C/n1c(=S)[nH]c2ccccc21)C(=O)Nc1ccccc1C | > 100 µM | > 100 µM | > 100 µM | > 100 µM | > 100 µM | > 100 µM | > 100 µM | > 100 µM | > 100 µM | > 100 µM | – | –
20 | C/C=C\C(CC(=O)NCCc1cn(C(=O)OCc2ccccc2)c2ccccc12)CC(=O)OC (configuration not stated) | > 100 µM | > 100 µM | > 100 µM | > 100 µM | > 100 µM | > 100 µM | > 100 µM | > 100 µM | > 100 µM | > 100 µM | – | –
21 | CC(C)=CCC/C(C)=C/CC/C(C)=C/Cc1c(O)c2ccccc2oc1=O | > 100 µM | > 100 µM | > 100 µM | > 100 µM | > 100 µM | > 100 µM | > 100 µM | > 100 µM | > 100 µM | > 100 µM | – | –
22 | CCOC(=O)C(NC(=O)N(C1=NCC(C)S1)C1CCCCC1)(OC)C(F)(F)F (configuration not stated) | > 100 µM | > 100 µM | 53.6 µM | > 100 µM | > 100 µM | 71.1 µM | > 100 µM | > 100 µM | > 100 µM | > 100 µM | – | –
23 | O=[N+]([O-])c1ccc2nc(-c3ccccn3)c(-c3ccccn3)nc2c1 | > 100 µM | > 100 µM | > 100 µM | > 100 µM | > 100 µM | > 100 µM | > 100 µM | > 100 µM | > 100 µM | > 100 µM | – | –
24 | O=C1C=CC(=O)C(CNc2ccc(C(=O)OC34CC5CC(CC(C5)C3)C4)cc2)=C1 | 39.2 µM | 27.8 µM | 16.4 µM | > 57.4 µM | 12 µM | 14.4 µM | 22.5 µM | 8.34 µM | 13.7 µM | 23.8 µM | – | –
25 | Cc1cc(=O)n2nc(SCc3ccccc3)sc2n1 | > 100 µM | > 100 µM | > 100 µM | > 100 µM | > 100 µM | > 100 µM | > 100 µM | > 100 µM | > 100 µM | > 100 µM | – | –
26 | c1ccc(CCNCc2ccco2)nc1 | > 100 µM | > 100 µM | > 100 µM | > 100 µM | > 100 µM | > 100 µM | > 100 µM | > 100 µM | > 100 µM | > 100 µM | – | –
27 | NC(=S)N/N=C\c1ccc(OCc2cccc(COc3ccc(/C=N/NC(N)=S)cc3)n2)cc1 | > 100 µM | > 100 µM | > 100 µM | > 100 µM | > 100 µM | > 100 µM | > 100 µM | > 100 µM | > 100 µM | > 100 µM | – | –
